What all share (assay): Antiproliferative MTT assay
Common to all, as to format: cell-based, human
Settings in all cases: 30 μM pure natural product, 72 h
On the technique in general: Tetrazolium assays rely on reduction of a dye to a coloured formazan, in cell work by metabolically active cells.

Test [1] concerns T47D. As to the method:
(§1) For the determination of the antiproliferative properties of the prepared extract and selected alkaloids (isopteropodine, mitraphylline, and uncarine D), an MTT assay was applied on our […] cell panel (see Table S4). […] All were maintained in a minimal essential medium completed with 10% fetal bovine serum, 1% non-essential amino acids, and 1% penicillin–streptomycin at 37 °C in a humidified atmosphere containing 5% CO2. All cell lines were purchased from the European Collection of Cell Cultures (Salisbury, UK), except for SiHa and C33A, which were from the American Tissue Culture Collection, LGC Standards GmbH (Wesel, Germany). Cell culture media and supplements were obtained from Lonza Group Ltd. (Basel, Switzerland). Cells were seeded into 96-well plates (C33A 10,000/well, all others 5000/well); after overnight incubation, the test substances were added and incubated for another 72 h under cell-culturing conditions. Uncaria tomentosa extract and the alkaloids were tested in the 1–90 μg/mL and 1–30 μM ranges, respectively. Finally, 20 μL of 5 mg/mL MTT solution was added to each well and incubated for 4 h; the medium was discarded, and the precipitated formazan crystals were dissolved in DMSO for 60 min with shaking. The absorbance was determined using a microplate reader (SPECTROstar Nano, BMG Labtech GmbH). Two independent experiments were performed with five parallels for each condition. Cisplatin, a clinically used anticancer agent (Ebewe GmbH, Unterach, Austria), was included as a reference compound. Calculations were conducted using the GraphPad Prism 10.0 software (GraphPad Software Inc., San Diego, CA, USA).
(§2) Table S4 – Antiproliferative properties of Uncaria tomentosa extract, three natural products (isopteropodine, mitraphylline, and uncarine D) and the
(§3) reference agent cisplatin.
(§4) Cell line Uncaria tomentosa isopteropodine mitraphylline uncarine D [95% confidence
(§5) 1: The highest applied concentration was 90 μg/mL and 30 μM for the extract and the pure natural products, respectively.
(§6) 2: Inhibitions less than 20% compared to the untreated control were regarded as negligible and were not given numerically.

The test system of test [2] is A2780. As for the experimental part: as §1, §2, §3, §4, §5, §6
Test [3] deals with C33A. As to the method: as §1, §2, §3, §4, §5, §6
The test system of test [4] is SiHa. As for the experimental part:
as §1, §2, §3, §4, §5, §6

The subject of test [5] is MCF7. As for the experimental part: as §1, §2, §3, §4, §5, §6
The subject of test [6] is HEK293-Mock. As to the method: as §1, §2, §3, §4, §5, §6
For test [7], the system named is HEK293-Mock-B. As for the experimental part:
as §1, §2, §3, §4, §5, §6

Test [8] concerns HeLa. As for the experimental part: as §1, §2, §3, §4, §5, §6
Test [9] concerns MDA-MB-231. As for the experimental part: as §1, §2, §3, §4, §5, §6

A value given as a limit tells only on which side of the number the result lay.

Regarding `COC(=O)C1=CO[C@@H](C)[C@@H]2CN3CC[C@@]4(C(=O)Nc5ccccc54)[C@@H]3C[C@H]12` [isopteropodine], the “Cell growth inhibition at the highest concentration (% ± SEM)” value (shortened to “Cell growth inhibition … (% ± SEM)”) in test [1] is on record as under 20%; in test [2], under 20%; in [3], under 20%; in test [4], 27.38 ± 2.72%; in test [5] it was under 20%; in test [6], under 20%. Further, the “Cell growth inhibition … (% ± SEM)” value in [7], in [8] and in test [9] was under 20% in each case.

Turning to `COC(=O)C1=CO[C@@H](C)[C@H]2CN3CC[C@]4(C(=O)Nc5ccccc54)[C@@H]3C[C@H]12` [mitraphylline], the “Cell growth inhibition … (% ± SEM)” value was under 20% in test [1]; under 20% in test [2]; under 20% in test [3]; 26.22 ± 1.12% in test [4]; under 20% in [5]; under 20% in test [6]. In addition, the “Cell growth inhibition … (% ± SEM)” value in test [7], in test [8] and in test [9] was under 20% in each case.

(Values after paper PMC11597817, “Modulation of Multispecific Transporters by Uncaria tomentosa Extract and Its Major Phytoconstituents” (Pharmaceutics, 2024).)
